Experimental data as given in PubChem BioAssay AID720665 (NMMLSC, 2013).
Inconclusive results are not listed. Activity calls are given as the source filed them.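 The calls were made as follows: active = inhibition of the calcium rise above 50%; inconclusive = dimming of resting cell dye signal by over 25%; inactive = inhibition below 50%.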

Tested on: TALL-104 thapsigargin calcium, Fura Red flow cytometry
Assay: inhibitors of thapsigargin-evoked calcium rise, mechanism study for lytic granule exocytosis inhibitor project, Fura Red, TALL-104 cells, CherryPick01 (AID 720665)
Conditions: active compounds read high; dose or concentration not given here

Structure (SMILES) | inhibition
Fc1ccc(/C=C\c2nccc3c2[nH]c2ccccc23)cc1 | 37.7% (inactive)
O=C(CN1C(=O)/C(=C\c2cccc(Br)c2)Oc2ccccc21)NCCCN1CCOCC1 | 1% (inactive)
